Assay [1] has as its system DLD1 colon cancer cells. Briefly: Protein L immunostain of variant 13 nuclear penetration with nuclear import inhibitors, DLD1 cells. It counts as cell-based. To be noted: 10 μM variant 13 co-incubated with 0, 10, 25, or 50 μM inhibitor. On the procedure: (§1) For all experiments, cells were cultivated overnight to allow for attachment, followed by pretreatment with either control medium (absence of inhibitor), or medium containing inhibitor for durations previously-reported in the literature (see Table 1, below).
(§2) For endocytosis inhibition experiments, cells were cultivated in serum-free medium containing 1% v/v BSA to deplete endogenous serum levels. Following preincubation with inhibitors, cells were treated with either control medium or 10 μM variant 13, and the same dose of small molecule inhibitor for a further 30 minutes. For all experiments, cells were washed thrice, followed by immediate fixation with pre-chilled ice-cold ethanol. Subsequently, treated cells were probed using a protein L immunodetection approach to probe variant 13 nuclear uptake (Rattray et al., Biochem Biophys Res Commun 496, 858-864 (2018)). All monolayers were immediately imaged following color development on an Evos Fl microscope.
(§3) DLD-1 and A549 cells were treated with 10 μM variant 13 co-incubated with 0, 10, 25, or 50 μM concentrations of ivermectin. Relative intensity of protein L nuclear staining as compared to amount of stain in cells treated without ivermectin was also quantified by ImageJ.
(§4) DLD-1 cells and A549 cells were treated with 10 μM variant 13 co-incubated with 0, 10, 25, or 50 μM concentrations of importazole and then immunostained for protein L.
(§5) DLD-1 cells and A549 cells were treated with 10 μM variant 13 co-incubated with 0, 10, 25, or 50 μM concentrations of mifepristone and then immunostained for protein L.

Assay [2] relates to A549 lung cancer cells. Briefly: Protein L immunostain of variant 13 nuclear penetration with nuclear import inhibitors, A549 cells. It counts as cell-based. To be noted: 10 μM variant 13 co-incubated with 0, 10, 25, or 50 μM inhibitor. As for the experimental part:
as §1, §2, §3, §4, §5

Assay [3] concerns MCF7 breast cancer cells. Put plainly: Uptake of rhodamine-labeled variant 13 into live MCF7 cells. Format: cell-based. The note with it: 50 μM ivermectin. As for the experimental part:
Live MCF7 breast cancer cells were treated with control or rhodamine-labeled variant 13 (Rh-variant 13)+/−50 μM ivermectin and were then visualized under light and fluorescence microscopy. Ivermectin inhibited cellular/nuclear uptake of Rh-variant 13.

For assay [4], the system named is DLD1 cells. Put plainly: SLE sera nuclear import with nuclear import inhibitors. Format: cell-based. The note with it: pre- and co-treatment with inhibitor. On the procedure: DLD1 cells were pre-treated with either control media, or media containing nuclear import inhibitors for four hours. Subsequent co-treatment with inhibitor and patient SLE serum (diluted 1:50) was performed for one hour at 37° C. Following treatment, cells were fixed, blocked and probed with an alkaline-phosphatase anti-human IgG primary antibody overnight (Fisher Scientific). Cell monolayers were washed, and color developed using NBT/BCIP reagent (Fisher Scientific) for the same duration across all experiments. Following chromogen color development, all monolayers were washed, and brightfield images acquired immediately on an Evos Fl microscope.

Assay [5] deals with DLD1 cells. Briefly: Nuclear penetration of scleroderma autoantibody SSC and effect of ivermectin. Format: cell-based. The source says: In addition to SLE, cell-penetrating autoantibodies are detected in other autoimmune diseases such as scleroderma. […] SSC was expressed in and purified from HEK293T cells. […] Ivermectin inhibited the nuclear uptake of SSC, confirming that ivermectin can modulate the nuclear-penetrating activity of autoantibodies from multiple autoimmune diseases.

Assay [6] has as its system DLD1 cancer cells. Put plainly: Uptake of rhodamine-labeled variant 13 into live DLD1 cells. It counts as cell-based. The note with it: 50 μM importazole. On the procedure:
Live DLD1 cancer cells were treated with control or rhodamine-labeled variant 13 (Rh-variant 13)+/−50 μM importazole and were then visualized under light and fluorescence microscopy.

The test system of assay [7] is cell nuclei. To be noted: known anti-DNA autoantibodies; cited from earlier work.
Assay [8] relates to cell nuclei. Briefly: Nuclear penetration of humanized 3E10 variants compared with 3E10 (D31N) di-scFv. To be noted: for Nuclear localizing?: humanized 3E10 variants. Format: cell-based. The source says: A range of humanized 3E10 variants were generated with subtle differences in framework and CDR sequences.
Assay [9] addresses T1, Importin-β1 (KPNB1) (Homo sapiens, UniProt Q14974).
T1 construct: endogenous in cells; host or cells: DLD1 cells
Put plainly: Variant 13 nuclear penetration after siRNA knockdown of importin β1 in DLD1 cells. It counts as cell-based. The note with it: 10 μM variant 13 for 30 minutes, n=100 cells per treatment. As for the experimental part: Importin-β1 (KPNB1) knockdown in DLD1 cells were generated using control (D-001206-14-05) and KPNB1 (importin β1, M-017523-01-0005) siRNA (Dharmacon). DLD1 cells were seeded into 24-well (western blot) or 96-well plates (cell penetration assays) overnight. Cell monolayers were transfected with siRNA, followed by media replacement at 24 hours, and evaluation at multiple time points post-transfection. Importin (31 expression was then evaluated by western blotting of cell lysates.
Knockdown of importin β1 in DLD1 cells by siRNA was next performed to further probe the role of this pathway in modulating variant 13 nuclear localization.

“Also recorded” adds a separate entry of the source. Where two headings read alike, the source gives them in different places.

T1 sequence (Q14974 whole entry): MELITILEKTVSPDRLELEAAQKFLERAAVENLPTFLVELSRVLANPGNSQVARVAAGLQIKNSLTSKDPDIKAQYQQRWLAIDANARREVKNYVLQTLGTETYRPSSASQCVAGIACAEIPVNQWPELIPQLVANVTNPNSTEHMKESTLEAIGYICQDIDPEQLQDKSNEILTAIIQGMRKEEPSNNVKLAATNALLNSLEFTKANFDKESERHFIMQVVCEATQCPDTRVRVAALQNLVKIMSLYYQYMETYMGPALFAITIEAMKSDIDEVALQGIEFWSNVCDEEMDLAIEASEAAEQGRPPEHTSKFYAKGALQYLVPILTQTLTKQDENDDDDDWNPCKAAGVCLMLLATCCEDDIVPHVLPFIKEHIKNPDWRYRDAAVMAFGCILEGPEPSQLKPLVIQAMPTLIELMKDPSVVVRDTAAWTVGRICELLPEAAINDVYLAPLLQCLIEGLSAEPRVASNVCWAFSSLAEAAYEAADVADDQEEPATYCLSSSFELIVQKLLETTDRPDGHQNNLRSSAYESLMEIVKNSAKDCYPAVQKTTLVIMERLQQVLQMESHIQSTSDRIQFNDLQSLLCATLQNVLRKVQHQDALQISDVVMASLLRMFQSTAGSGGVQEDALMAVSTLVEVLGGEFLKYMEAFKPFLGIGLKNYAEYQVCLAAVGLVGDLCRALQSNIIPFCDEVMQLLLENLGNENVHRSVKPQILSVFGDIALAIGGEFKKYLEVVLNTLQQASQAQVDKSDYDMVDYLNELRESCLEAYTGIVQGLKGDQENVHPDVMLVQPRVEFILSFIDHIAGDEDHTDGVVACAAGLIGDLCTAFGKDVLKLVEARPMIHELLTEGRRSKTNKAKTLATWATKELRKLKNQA

On to ivermectin, for which the “nuclear penetration by variant 13” value in assay [1] and in [2] was “dose-dependent reduction” throughout. Moreover, the “cellular/nuclear uptake of rhodamine-labeled variant 13” value in assay [3] is recorded as “inhibited”. In addition, the “nuclear staining / nuclear uptake of ANAs in SLE-4, 8, 9, and 19” value in assay [4] (serum diluted 1:50) is recorded as “reduced the nuclear staining; also recorded: blocked”. Also, the “nuclear uptake of SSC” value in [5] is “inhibited”.

As to `CC(Nc1nc(N2CCCC2)nc2ccccc12)c1ccccc1` (stereo not drawn) [importazole], the “nuclear penetration by variant 13” value in assay [1] and in [2] was “reduction” in each case. Also, the “nuclear uptake of rhodamine-labeled variant 13” value in [6] is “inhibited”. Besides, the “nuclear uptake of ANAs in SLE-19” value in [4] is “inhibit nuclear uptake of ANAs in SLE-19 in a dose-dependent manner”.

In the case of `CC#C[C@]1(O)CC[C@H]2[C@@H]3CCC4=CC(=O)CCC4=C3[C@@H](c3ccc(N(C)C)cc3)C[C@@]21C` [mifepristone], the “nuclear penetration by variant 13” value in assay [1] and in [2] was “reduction” throughout. Also, in [4], the “nuclear uptake of ANAs in SLE-19” value is “inhibit nuclear uptake of ANAs in SLE-19 in a dose-dependent manner”.

Regarding “3E10: murine lupus anti-DNA monoclonal antibody produced by ATCC Accession No. PTA 2439 hybridoma [Variant 3E10]”, the “Nuclear localizing?” value in assay [7] is reported as “Yes”.

B1: variant 10: humanized 3E10 variant, SEQ ID NOS: 14, 22, and 32 (protein)
chain 1: EVQLVESGGGLVQPGGSLRLSCAASGFTFSNYGMHWVRQAPGKGLEWVSYISSSSSTIYYADSVKGRFTISRDNAKNSLYLQMNSLRAEDTAVYYCARRGLLLDYWGQGTTVTVSS
chain 2: DIQMTQSPSSLSASVGDRVTITCRASKSVSTSSYSYMHWYQQKPGKAPKLLIKYASYLESGVPSRFSGSGSGTDFTLTISSLQPEDFATYYCQHSREFPWTFGQGTKVEIK
chain 3: DIQMTQSPSSLSASVGDRVTITCRASKSVSTSSYSYMHWYQQKPGKAPKLLIKYASYLESGVPSRFSGSGSGTDFTLTISSLQPEDFATYYCQHSREFPWTFGQGTKVEIKRADAAPGGGGSGGGGSGGGGSEVQLVESGGGLVQPGGSLRLSCAASGFTFSNYGMHWVRQAPGKGLEWVSYISSSSSTIYYADSVKGRFTISRDNAKNSLYLQMNSLRAEDTAVYYCARRGLLLDYWGQGTTVTVSSASTKGPSVFPLAPLESSGSDIQMTQSPSSLSASVGDRVTITCRASKSVSTSSYSYMHWYQQKPGKAPKLLIKYASYLESGVPSRFSGSGSGTDFTLTISSLQPEDFATYYCQHSREFPWTFGQGTKVEIKRADAAPGGGGSGGGGSGGGGSEVQLVESGGGLVQPGGSLRLSCAASGFTFSNYGMHWVRQAPGKGLEWVSYISSSSSTIYYADSVKGRFTISRDNAKNSLYLQMNSLRAEDTAVYYCARRGLLLDYWGQGTTVTVSS
For the molecule B1, in assay [8], the “nuclear penetration compared to murine 3E10 (D31N) di-scFv prototype” value was “penetrated nuclei very well” and the “Nuclear localizing?” value is reported as “Yes”.

B2: variant 13: humanized 3E10 variant, SEQ ID NOS: 17, 23, and 35, expressed in CHO cells (protein)
chain 1: EVQLVESGGGLVQPGGSLRLSCAASGFTFSNYGMHWVRQAPGKGLEWVSYISSGSSTIYYADSVKGRFTISRDNAKNSLYLQMNSLRAEDTAVYYCARRGLLLDYWGQGTTVTVSS
chain 2: DIQMTQSPSSLSASLGDRATITCRASKTVSTSSYSYMHWYQQKPGQPPKLLIKYASYLESGVPSRFSGSGSGTDFTLTISSLQPEDAATYYCQHSREFPWTFGGGTKVEIK
chain 3: DIQMTQSPSSLSASLGDRATITCRASKTVSTSSYSYMHWYQQKPGQPPKLLIKYASYLESGVPSRFSGSGSGTDFTLTISSLQPEDAATYYCQHSREFPWTFGGGTKVEIKRADAAPGGGGSGGGGSGGGGSEVQLVESGGGLVQPGGSLRLSCAASGFTFSNYGMHWVRQAPGKGLEWVSYISSGSSTIYYADSVKGRFTISRDNAKNSLYLQMNSLRAEDTAVYYCARRGLLLDYWGQGTTVTVSSASTKGPSVFPLAPLESSGSDIQMTQSPSSLSASLGDRATITCRASKTVSTSSYSYMHWYQQKPGQPPKLLIKYASYLESGVPSRFSGSGSGTDFTLTISSLQPEDAATYYCQHSREFPWTFGGGTKVEIKRADAAPGGGGSGGGGSGGGGSEVQLVESGGGLVQPGGSLRLSCAASGFTFSNYGMHWVRQAPGKGLEWVSYISSGSSTIYYADSVKGRFTISRDNAKNSLYLQMNSLRAEDTAVYYCARRGLLLDYWGQGTTVTVSS
In the case of B2, in assay [8], the “nuclear penetration compared to murine 3E10 (D31N) di-scFv prototype” value was “penetrated nuclei very well” and the “Nuclear localizing?” value is reported as “Yes”. Moreover, in assay [9], the “variant 13 nuclear signal in importin β1 knockdown cells compared to cells with intact importin β1” value is given as “significant reduction”.

The values are drawn from US12304970B2, “Nuclear localization signals, compositions formed therefrom, and methods of use thereof for delivery of cargo to the nucleus” (Yale University, priority 2018, dated 2025).
